Assay results from the supplement of paper PMC10307832.

Columns and labels:
Assay in all cases: relative viability (nuclei count vs DMSO), 5 days (fraction); higher = more cells survive
[1] = compound: CC1=C(C(=O)N2C=CSC2=N1)CCN3CCC(=C(C4=CC=CC=C4)C5=CC=C(C=C5)F)CC3 + CC1(C)CCC(c2ccc(Cl)cc2)=C(CN2CCN(c3ccc(C(=O)NS(=O)(=O)c4ccc(N[C@H](CCN5CCOCC5)CSc5ccccc5)c(S(=O)(=O)C(F)(F)F)c4)cc3)CC2)C1 [Navitoclax] (partner 0.5 µM)
In short: (§1)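 After 5 days of treatment, lung cancer cells in 1536-well plates were fixed and stained in a single step (final 0.05% Triton X-100, 1% formaldehyde, 1 ug/ml Hoechst) and their nuclei counted on 4× images. Treatment had been applied by pin tool the day after seeding as one drug alone or as a fixed anchor-drug dose with five library-drug doses (not always all listed) in √10 steps. Relative viability is the nuclei count of treated wells divided by that of vehicle wells, and values are medians of duplicate plates.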

[2] = compound: CC1=C(C(=O)N2C=CSC2=N1)CCN3CCC(=C(C4=CC=CC=C4)C5=CC=C(C=C5)F)CC3 + CCNC(=O)c1noc(-c2cc(C(C)C)c(O)cc2O)c1-c1ccc(CN2CCOCC2)cc1 [Luminespib] (partner 0.01 µM)
In short: as §1

[3] = compound: CC1=C(C(=O)N2C=CSC2=N1)CCN3CCC(=C(C4=CC=CC=C4)C5=CC=C(C=C5)F)CC3 + COc1cc2c(Oc3ccc(NC(=O)C4(C(=O)Nc5ccc(F)cc5)CC4)cc3F)ccnc2cc1OCCCN1CCOCC1 [Foretinib] (partner 0.25 µM)
In short: as §1

[4] = compound: CC1=C(C(=O)N2C=CSC2=N1)CCN3CCC(=C(C4=CC=CC=C4)C5=CC=C(C=C5)F)CC3 + C[C@]1(O)C[C@@H](c2nc(-c3ccc4ccc(-c5ccccc5)nc4c3)c3c(N)nccn32)C1 [Linsitinib] (partner 1 µM)
In short: as §1

Cell Line	relative viability ([1]; first compound 0.08 µM)	relative viability ([1]; first compound 0.253 µM)	relative viability ([1]; first compound 0.8 µM)	relative viability ([1]; first compound 2.53 µM)	relative viability ([1]; first compound 8 µM)	relative viability ([2]; first compound 0.08 µM)	relative viability ([2]; first compound 0.253 µM)	relative viability ([2]; first compound 0.8 µM)	relative viability ([2]; first compound 2.53 µM)	relative viability ([2]; first compound 8 µM)	relative viability ([3]; first compound 0.08 µM)	relative viability ([3]; first compound 0.253 µM)	relative viability ([3]; first compound 0.8 µM)	relative viability ([3]; first compound 2.53 µM)	relative viability ([3]; first compound 8 µM)	relative viability ([4]; first compound 0.08 µM)	relative viability ([4]; first compound 0.253 µM)	relative viability ([4]; first compound 0.8 µM)	relative viability ([4]; first compound 2.53 µM)	relative viability ([4]; first compound 8 µM)
NCI-H647	1.12	1.13	1.11	1.2	0.476	0.142	0.157	0.153	0.119	0.179	1.03	1.23	1.24	1.2	0.65	1.1	0.895	1.16	1.86	0.846
NCI-H727	0.346	0.481	0.444	0.48	0.383	0.284	0.668	0.346	0.331	0.38	0.846	1.01	0.89	0.921	0.624	0.194	0.227	0.298	0.437	0.295
NCI-H838	0.986	1.08	1.15	1.62	0.494	0.298	0.263	0.227	0.318	0.259	0.827	1.03	1.04	1.12	0.9	1.02	1.02	1.02	1.31	0.809
NCI-H1355	0.976	0.984	0.996	1.09	0.787	0.767	0.735	0.809	0.656	0.675	1.09	0.94	1.08	0.893	0.661	0.775	0.876	0.844	0.856	0.588
NCI-H1395	1.19	1.46	1.02	1.05	1.05	0.606	0.746	1.01	0.955	0.776	1.07	1.08	0.972	0.97	1.06	1.21	0.982	1.08	0.891	1.07
NCI-H1437	–	0.924	1.09	1.44	0.693	1.11	1.21	1.28	1.27	0.739	1.23	1.32	1.31	1.34	0.841	–	1.07	1.14	1.14	0.622
NCI-H1651	0.984	0.654	1.01	1.29	0.404	1.04	0.943	1.07	1.04	0.588	0.747	0.884	0.912	0.822	0.558	0.925	0.863	0.969	1.19	0.673
NCI-H1666	0.991	0.854	1.04	1.16	0.836	1.07	1.06	1.01	0.984	0.848	0.924	0.956	0.949	1.04	0.798	0.86	0.734	0.768	0.886	0.621
